Experiment [1] has as its target T1, Xanthine dehydrogenase/oxidase (Bos taurus, UniProt P80457). In words: Inhibition of bovine xanthine oxidase assessed as reduction in uric acid formation at 100 uM using xanthine as substrate pretreated for 5 mins followed by substrate addition measured by UV-vis spectrophotometric method relative to control. The note with it: cattle.
The target of experiment [2] is T1, Xanthine dehydrogenase/oxidase. Kind of experiment: Inhibition of bovine xanthine oxidase assessed as reduction in uric acid formation using xanthine as substrate pretreated for 5 mins followed by substrate addition measured by UV-vis spectrophotometric method.

Structures are written as SMILES.

T1 sequence (P80457 whole entry): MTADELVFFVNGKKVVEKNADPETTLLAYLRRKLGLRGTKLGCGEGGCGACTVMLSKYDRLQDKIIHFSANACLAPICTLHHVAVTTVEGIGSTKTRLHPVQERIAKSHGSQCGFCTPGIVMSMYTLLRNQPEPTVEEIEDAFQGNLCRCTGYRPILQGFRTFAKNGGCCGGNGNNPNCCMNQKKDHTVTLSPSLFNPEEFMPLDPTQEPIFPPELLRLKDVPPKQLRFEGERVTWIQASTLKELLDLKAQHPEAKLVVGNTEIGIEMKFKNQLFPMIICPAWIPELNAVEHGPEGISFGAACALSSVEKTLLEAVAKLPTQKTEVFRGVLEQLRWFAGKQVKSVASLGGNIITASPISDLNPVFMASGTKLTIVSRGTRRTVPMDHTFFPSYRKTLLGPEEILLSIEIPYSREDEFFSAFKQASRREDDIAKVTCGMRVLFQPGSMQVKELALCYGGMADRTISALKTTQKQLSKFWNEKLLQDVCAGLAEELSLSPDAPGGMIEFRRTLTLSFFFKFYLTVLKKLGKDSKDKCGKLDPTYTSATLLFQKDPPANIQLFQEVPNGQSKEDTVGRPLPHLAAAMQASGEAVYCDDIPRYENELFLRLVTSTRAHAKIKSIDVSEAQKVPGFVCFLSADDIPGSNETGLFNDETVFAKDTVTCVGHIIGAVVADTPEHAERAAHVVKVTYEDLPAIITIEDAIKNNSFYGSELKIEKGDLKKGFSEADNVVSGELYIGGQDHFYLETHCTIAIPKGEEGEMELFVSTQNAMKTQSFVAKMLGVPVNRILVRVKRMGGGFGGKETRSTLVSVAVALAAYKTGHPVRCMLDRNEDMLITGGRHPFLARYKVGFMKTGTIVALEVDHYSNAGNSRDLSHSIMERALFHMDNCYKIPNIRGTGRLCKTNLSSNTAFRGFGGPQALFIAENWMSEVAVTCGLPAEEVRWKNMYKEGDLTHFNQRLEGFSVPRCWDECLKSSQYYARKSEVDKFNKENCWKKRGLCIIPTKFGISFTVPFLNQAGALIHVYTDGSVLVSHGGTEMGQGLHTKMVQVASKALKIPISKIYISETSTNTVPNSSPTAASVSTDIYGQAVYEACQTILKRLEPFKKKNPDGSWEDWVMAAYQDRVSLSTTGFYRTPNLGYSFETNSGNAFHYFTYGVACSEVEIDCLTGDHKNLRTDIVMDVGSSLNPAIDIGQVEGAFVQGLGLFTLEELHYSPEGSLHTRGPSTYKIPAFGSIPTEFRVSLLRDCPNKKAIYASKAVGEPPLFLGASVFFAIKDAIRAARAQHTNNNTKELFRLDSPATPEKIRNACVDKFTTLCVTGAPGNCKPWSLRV

Consider `COc1ccc(Nc2ncnc3c2C(c2cccc(Cl)c2)c2c(n[nH]c2C)O3)cc1` (configuration not stated), for which, in experiment [1], the inhibition at 100 µM was 33.1%. Still for that read-out and setting: in the case of `COc1ccc(Nc2ncnc3c2C(c2cc(OC)c(OC)c(OC)c2)c2c(n[nH]c2C)O3)cc1` (configuration not stated) it was 47.9%; in that of `COc1ccc(Nc2ncnc3c2C(c2cccc(O)c2)c2c(ccc4ccccc24)O3)cc1` (configuration not stated), 28.1%; in that of `COc1ccc(Nc2ncnc3c2C(c2cc(OC)c(OC)c(OC)c2)c2ccc4ccccc4c2O3)cc1` (configuration not stated), 25.2%.

Take `COc1ccc(Nc2ncnc3c2C(c2cccs2)c2c(c(=O)oc4ccccc24)O3)cc1` (configuration not stated): in experiment [1], the inhibition at 100 µM was 58.8%. Consider `COc1ccc(Nc2ncnc3c2C(c2cccs2)C2=C(CCCC2=O)O3)cc1` (configuration not stated), for which the inhibition at 100 µM in experiment [1] came to 59.1%. Same read-out and setting: in the case of `COc1ccc(Nc2ncnc3c2C(c2ccc(O)cc2)c2ccc4ccccc4c2O3)cc1` (configuration not stated) it was 28.6%; in that of `COc1ccc(Nc2ncnc3c2C(c2cccc4ccccc24)c2c(c(=O)oc4ccccc24)O3)cc1` (configuration not stated), 10%. On to `COc1ccc(Nc2ncnc3c2C(c2ccc(Cl)cc2)c2c(ccc4ccccc24)O3)cc1` (configuration not stated), for which, in experiment [1], the inhibition at 100 µM turned out to be 17.2%. Same read-out and setting: in the case of `COc1ccc(Nc2ncnc3c2C(c2cccc([N+](=O)[O-])c2)c2ccc4ccccc4c2O3)cc1` (configuration not stated) it was 13%; in that of `COc1ccc(Nc2ncnc3c2C(c2ccc(F)cc2)c2ccc4ccccc4c2O3)cc1` (configuration not stated), 19%. `COc1ccc(Nc2ncnc3c2C(c2ccncc2)c2c(n[nH]c2C)O3)cc1` (configuration not stated): the inhibition at 100 µM in experiment [1] stood at 15.1%. As for `COc1ccc(Nc2ncnc3c2C(c2ccc([N+](=O)[O-])cc2)c2c(ccc4ccccc24)O3)cc1` (configuration not stated), the inhibition at 100 µM in experiment [1] was 11%. The same measure, in the same setting: in the case of `COc1ccc(Nc2ncnc3c2C(c2cccc4ccccc24)C2=C(CCCC2=O)O3)cc1` (configuration not stated) it was 12.1%; in that of `COc1ccc(Nc2ncnc3c2C(c2ccccc2OC)c2c(n[nH]c2C)O3)cc1` (configuration not stated), 55.2%.

`COc1ccc(Nc2ncnc3c2C(c2ccccc2)c2c(ccc4ccccc24)O3)cc1` (configuration not stated): the inhibition at 100 µM in experiment [1] is 20.2%. Take `COc1ccc(Nc2ncnc3c2C(c2ccccc2)c2c(n[nH]c2C)O3)cc1` (configuration not stated): in experiment [1], the inhibition at 100 µM stood at 38.1%. On the same count and under the same terms, in the case of `COc1ccc(Nc2ncnc3c2C(c2ccc(O)c(O)c2)c2ccc4ccccc4c2O3)cc1` (configuration not stated) it was 36.5%; in that of `COc1ccc(Nc2ncnc3c2C(c2ccc([N+](=O)[O-])cc2)c2c(n[nH]c2C)O3)cc1` (configuration not stated), 25.7%. As to `COc1ccc(Nc2ncnc3c2C(c2ccncc2)c2c(c(=O)oc4ccccc24)O3)cc1` (configuration not stated), the inhibition at 100 µM in experiment [1] was determined as 45.1%. `COc1ccc(Nc2ncnc3c2C(c2ccc(F)cc2)c2c(ccc4ccccc24)O3)cc1` (configuration not stated): in experiment [1], the inhibition at 100 µM was 19.6%. The same measure, in the same setting: in the case of `COc1ccc(Nc2ncnc3c2C(c2ccc(Br)cc2)c2c(ccc4ccccc24)O3)cc1` (configuration not stated) it was 16.5%. On to `COc1ccc(Nc2ncnc3c2C(c2cccc(Cl)c2)c2ccc4ccccc4c2O3)cc1` (configuration not stated), for which the inhibition at 100 µM in experiment [1] was 17.1%. With `COc1ccc(Nc2ncnc3c2C(c2cccc([N+](=O)[O-])c2)c2c(n[nH]c2C)O3)cc1` (configuration not stated), in experiment [1], the inhibition at 100 µM is 28.9%. With `COc1ccc(Nc2ncnc3c2C(c2ccccc2OC)c2c(ccc4ccccc24)O3)cc1` (configuration not stated), the inhibition at 100 µM in experiment [1] turned out to be 30.1%. As for `COc1ccc(Nc2ncnc3c2C(c2ccc(O)cc2)c2c(n[nH]c2C)O3)cc1` (configuration not stated), the inhibition at 100 µM in experiment [1] worked out at 52.1%.

On to `COc1ccc(Nc2ncnc3c2C(c2ccc(OC)c(OC)c2)c2c(ccc4ccccc24)O3)cc1` (configuration not stated), for which the inhibition at 100 µM in experiment [1] was found to be 39.4%. Turning to `COc1ccc(Nc2ncnc3c2C(c2ccc(OC)cc2)c2ccc4ccccc4c2O3)cc1` (configuration not stated), the inhibition at 100 µM in experiment [1] stood at 31.1%. For the compound `COc1ccc(Nc2ncnc3c2C(c2cccc(C)c2)c2ccc4ccccc4c2O3)cc1` (configuration not stated), the inhibition at 100 µM in experiment [1] came out at 21.8%.

As to `COc1ccc(Nc2ncnc3c2C(c2cc4ccccc4[nH]2)c2c(c(=O)oc4ccccc24)O3)cc1` (configuration not stated), in experiment [1], the inhibition at 100 µM was found to be 18.4%.

Consider `COc1ccc(Nc2ncnc3c2C(c2cccc4ccccc24)c2c(n[nH]c2C)O3)cc1` (configuration not stated), for which the inhibition at 100 µM in experiment [1] worked out at 10.1%. Still for that read-out and setting: in the case of `COc1ccc(Nc2ncnc3c2C(c2cccc(O)c2)c2ccc4ccccc4c2O3)cc1` (configuration not stated) it was 27.4%. Same read-out and setting: in the case of `COc1ccc(Nc2ncnc3c2C(c2cccc(C)c2)c2c(n[nH]c2C)O3)cc1` (configuration not stated) it was 43.6%; in that of `COc1ccc(Nc2ncnc3c2C(c2ccc(O)c(O)c2)c2c(ccc4ccccc24)O3)cc1` (configuration not stated), 37.2%; in that of `COc1ccc(Nc2ncnc3c2C(c2cccc(Cl)c2)c2c(ccc4ccccc24)O3)cc1` (configuration not stated), 17.6%. As for `COc1ccc(Nc2ncnc3c2C(c2ccc(Br)cc2)c2ccc4ccccc4c2O3)cc1` (configuration not stated), the inhibition at 100 µM in experiment [1] came to 15.5%. With `COc1ccc(Nc2ncnc3c2C(c2ccc(Cl)cc2)c2c(n[nH]c2C)O3)cc1` (configuration not stated), in experiment [1], the inhibition at 100 µM amounted to 32.2%. With `COc1ccc(Nc2ncnc3c2C(c2ccc(O)cc2)c2c(ccc4ccccc24)O3)cc1` (configuration not stated), in experiment [1], the inhibition at 100 µM is 29.1%.

`COc1ccc(Nc2ncnc3c2C(c2cc4ccccc4[nH]2)C2=C(CCCC2=O)O3)cc1` (configuration not stated): in experiment [1], the inhibition at 100 µM came to 19.3%. Same read-out and setting: in the case of `COc1ccc(Nc2ncnc3c2C(c2ccc(OC)c(OC)c2)c2ccc4ccccc4c2O3)cc1` (configuration not stated) it was 39.7%; in that of `COc1ccc(Nc2ncnc3c2C(c2ccncc2)C2=C(CCCC2=O)O3)cc1` (configuration not stated), 46%. With `COc1ccc(Nc2ncnc3c2C(c2ccc(O)c(OC)c2)c2ccc4ccccc4c2O3)cc1` (configuration not stated), in experiment [1], the inhibition at 100 µM is 33.2%. In the case of `COc1ccc(Nc2ncnc3c2C(c2ccccc2)c2ccc4ccccc4c2O3)cc1` (configuration not stated), the inhibition at 100 µM in experiment [1] turned out to be 20.5%. As for `COc1ccc(Nc2ncnc3c2C(c2cccc(C)c2)c2c(ccc4ccccc24)O3)cc1` (configuration not stated), the inhibition at 100 µM in experiment [1] was found to be 22.6%. As to `COc1ccc(Nc2ncnc3c2C(c2ccc([N+](=O)[O-])cc2)c2ccc4ccccc4c2O3)cc1` (configuration not stated), the inhibition at 100 µM in experiment [1] stood at 10.5%. Turning to `COc1ccc(Nc2ncnc3c2C(c2cc4ccccc4[nH]2)c2c(n[nH]c2C)O3)cc1` (configuration not stated), the inhibition at 100 µM in experiment [1] stood at 11.2%. As to `COc1ccc(Nc2ncnc3c2C(c2ccc(Br)cc2)c2c(n[nH]c2C)O3)cc1` (configuration not stated), in experiment [1], the inhibition at 100 µM worked out at 30.3%. Regarding `COc1ccc(Nc2ncnc3c2C(c2cccc(O)c2)c2c(n[nH]c2C)O3)cc1` (configuration not stated), the inhibition at 100 µM in experiment [1] came out at 50.1%.

As for `COc1ccc(Nc2ncnc3c2C(c2cc(OC)c(OC)c(OC)c2)c2c(ccc4ccccc24)O3)cc1` (configuration not stated), in experiment [1], the inhibition at 100 µM came to 25.8%. `COc1ccc(Nc2ncnc3c2C(c2ccccc2OC)c2ccc4ccccc4c2O3)cc1` (configuration not stated): in experiment [1], the inhibition at 100 µM came to 30%.

On to `COc1ccc(Nc2ncnc3c2C(c2cccs2)c2c(n[nH]c2C)O3)cc1` (configuration not stated), for which the inhibition at 100 µM in experiment [1] came out at 19.8%.

With `COc1ccc(Nc2ncnc3c2C(c2ccc(F)cc2)c2c(n[nH]c2C)O3)cc1` (configuration not stated), the inhibition at 100 µM in experiment [1] is 35.7%.

On to `COc1ccc(Nc2ncnc3c2C(c2ccc(O)c(OC)c2)c2c(ccc4ccccc24)O3)cc1` (configuration not stated), for which the inhibition at 100 µM in experiment [1] was found to be 33.8%. Still for that read-out and setting: in the case of `COc1ccc(Nc2ncnc3c2C(c2cccc([N+](=O)[O-])c2)c2c(ccc4ccccc24)O3)cc1` (configuration not stated) it was 13.3%; in that of `COc1ccc(Nc2ncnc3c2C(c2ccc(Cl)cc2)c2ccc4ccccc4c2O3)cc1` (configuration not stated), 16.7%.

`COc1ccc(Nc2ncnc3c2C(c2ccc(OC)cc2)c2c(ccc4ccccc24)O3)cc1` (configuration not stated): the inhibition at 100 µM in experiment [1] came to 32.6%. On to `O=c1cc(-c2ccc(O)cc2)oc2cc(O)cc(O)c12` [APIGENIN], for which the IC50 in experiment [2] stood at 10.2 µM.

For orientation: inhibition means the share of the control response that was lost under treatment. What is called IC50 is the concentration that inhibits the measured activity by half.

For the origin of these results see ChEMBL document CHEMBL4011597, “Synthesis, screening and docking of fused pyrano[3,2-d]pyrimidine derivatives as xanthine oxidase inhibitor” (Eur J Med Chem, 2017).
